Paper PMC7792585, “Trospium Chloride Transport by Mouse Drug Carriers of the Slc22 and Slc47 Families” (International Journal of Molecular Sciences, 2020)

What was measured:
[1] = biological target: T1, mMate2 (Mus musculus, UniProt Q3V050); assay: inhibition of [3H]MPP+ uptake in mMate2-HEK293 cells at […]; assay type: cell-based
T1 construct: gene Slc47a2; full open reading frame
T1 sequence (Q3V050 1-573): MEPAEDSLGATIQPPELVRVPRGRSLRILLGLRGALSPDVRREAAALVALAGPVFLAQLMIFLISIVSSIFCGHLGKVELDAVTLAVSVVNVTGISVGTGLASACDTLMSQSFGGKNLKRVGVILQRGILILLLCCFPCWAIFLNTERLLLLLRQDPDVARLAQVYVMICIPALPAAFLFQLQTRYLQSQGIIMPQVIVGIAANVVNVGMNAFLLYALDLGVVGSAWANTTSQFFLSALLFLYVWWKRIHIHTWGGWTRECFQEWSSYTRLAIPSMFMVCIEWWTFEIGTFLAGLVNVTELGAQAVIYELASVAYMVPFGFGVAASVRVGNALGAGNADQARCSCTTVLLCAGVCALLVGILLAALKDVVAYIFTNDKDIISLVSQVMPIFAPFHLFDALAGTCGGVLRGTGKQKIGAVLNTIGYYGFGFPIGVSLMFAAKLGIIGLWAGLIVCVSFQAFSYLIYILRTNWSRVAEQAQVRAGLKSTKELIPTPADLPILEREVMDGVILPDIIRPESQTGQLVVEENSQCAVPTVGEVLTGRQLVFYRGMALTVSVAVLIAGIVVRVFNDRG

[2] = substrate: O=C(O[C@H]1C[C@H]2CC[C@@H](C1)[N+]21CCCC1)C(O)(c1ccccc1)c1ccccc1; assay: [3H]trospium uptake in stably transfected HEK293 cells, Michaelis-Menten (Km); assay type: cell-based, Mus musculus
[3] = substrate: C[n+]1ccc(-c2ccccc2)cc1; assay: cells, lysate or membranes

Nc1nc2c(ncn2COCCO)c(=O)[nH]1 [acyclovir]
inhibition of [3H]MPP+ uptake in mMate2-HEK293 cells at 10 and 100 μM [1]: mMate2 was significantly inhibited by tetraethylammonium (TEA), topotecan, acyclovir, and levofloxacin

C[C@H]1COc2c(N3CCN(C)CC3)c(F)cc3c(=O)c(C(=O)O)cn1c23 [levofloxacin]
inhibition of [3H]MPP+ uptake in mMate2-HEK293 cells at 10 and 100 μM [1]: mMate2 was significantly inhibited by tetraethylammonium (TEA), topotecan, acyclovir, and levofloxacin

CC[N+](CC)(CC)CC [tetraethylammonium]
inhibition of [3H]MPP+ uptake in mMate2-HEK293 cells at 10 and 100 μM [1]: mMate2 was significantly inhibited by tetraethylammonium (TEA), topotecan, acyclovir, and levofloxacin

CC[C@@]1(O)C(=O)OCc2c1cc1n(c2=O)Cc2cc3c(CN(C)C)c(O)ccc3nc2-1 [topotecan]
inhibition of [3H]MPP+ uptake in mMate2-HEK293 cells at 10 and 100 μM [1]: mMate2 was significantly inhibited by tetraethylammonium (TEA), topotecan, acyclovir, and levofloxacin

B1: mOct1 (Mus musculus) (protein)
chain: MPTVDDVLEHVGEFGWFQKQAFLLLCLISASLAPIYVGIVFLGFTPDHHCRSPGVAELSQRCGWSPAEELNYTVPGLGSAGEASFLSQCMKYEVDWNQSTLDCVDPLSSLAANRSHLPLSPCEHGWVYDTPGSSIVTEFNLVCGDAWKVDLFQSCVNLGFFLGSLVVGYIADRFGRKLCLLVTTLVTSLSGVLTAVAPDYTSMLLFRLLQGMVSKGSWVSGYTLITEFVGSGYRRTTAILYQVAFTVGLVGLAGVAYAIPDWRWLQLAVSLPTFLFLLYYWFVPESPRWLLSQKRTTQAVRIMEQIAQKNRKVPPADLKMMCLEEDASERRSPSFADLFRTPSLRKHTLILMYLWFSCAVLYQGLIMHVGATGANLYLDFFYSSLVEFPAAFIILVTIDRIGRIYPIAASNLVAGAACLLMIFIPHELHWLNVTLACLGRMGATIVLQMVCLVNAELYPTFIRNLGMMVCSALCDLGGIFTPFMVFRLMEVWQALPLILFGVLGLSAGAVTLLLPETKGVALPETIEEAENLGRRKSKAKENTIYLQVQTGKSPHT
notes: full open reading frame
Km [2]: 58.7 ± 15.5 µM

B2: mMate1 (Mus musculus) (protein)
chain: MERTEESAPGPGGADAASERRGLRCLLLPGFLEELRALLVLAGPAFLAQLMMFLISFISSVFCGHLGKLELDAVTLAIAVINVTGISVGHGLSSACDTLISQTYGSQNLKHVGVILQRGTLILLLCCFPCWALFINTEQILLLFRQDPDVSRLTQTYVMIFIPALPAAFLYTLQVKYLLNQGIVLPQIMTGIAANLVNALANYVFLYHLHLGVMGSALANTISQFALAIFLFLYILWRRLHQATWGGWSWECLQDWASFLRLAIPSMLMLCIEWWAYEVGSFLSGILGMVELGAQSITYELAIIVYMIPSGFSVAANVRVGNALGAGNIDQAKKSSAISLIVTELFAVTFCVLLLGCKDLVGYIFTTDRDIVALVAQVIPIYAVSHLFEGLACTCGGILRGTGNQKVGAIVNAIGYYVIGLPIGIALMFAAKLGVIGLWSGIIICTTCQTTCFLAFIARLNWKRACQQAQVHANLKVNVALNSAVSHEPAHPVCPESHGEIMMTDLEKKDETQLDQPMNQQQALPIRPKDSNKLSGKQLALRRGLLLLGVVLVLVGGILVRVYIRIE
notes: full open reading frame
Km [2]: 29.3 ± 6.7 µM

B3: mOct2 (Mus musculus) (protein)
chain: MPTVDDILEHIGEFHLFQKQTFFLLALLSGAFTPIYVGIVFLGFTPNHHCRSPGVAELSQRCGWSPAEELNYTVPGLGSAGEVSFLSQCMRYEVDWNQSTLDCVDPLSSLAANRSHLPLSPCEHGWVYDTPGSSIVTEFNLVCAHSWMLDLFQSLVNVGFFIGAVGIGYLADRFGRKFCLLVTILINAISGVLMAISPNYAWMLVFRFLQGLVSKAGWLIGYILITEFVGLGYRRTVGICYQIAFTVGLLILAGVAYALPNWRWLQFAVTLPNFCFLLYFWCIPESPRWLISQNKNAKAMKIIKHIAKKNGKSVPVSLQSLTADEDTGMKLNPSFLDLVRTPQIRKHTLILMYNWFTSSVLYQGLIMHMGLAGDNIYLDFFYSALVEFPAAFIIILTIDRIGRRYPWAVSNMVAGAACLASVFIPDDLQWLKITVACLGRMGITIAYEMVCLVNAELYPTYIRNLAVLVCSSMCDIGGIVTPFLVYRLTDIWLEFPLVVFAVVGLVAGGLVLLLPETKGKALPETIEDAEKMQRPRKKKEKRIYLQVKKAELS
notes: full open reading frame
Km [2]: 78.5 ± 25.9 µM

B4: mMate2 (Mus musculus) (protein)
chain: T1 sequence (Q3V050 1-573)
Km [3]: 60.0 ± 5.6 µM
